# Results from ChEMBL document CHEMBL3885881, “DrugMatrix”.
# Species on record: Rattus norvegicus
# Test: DrugMatrix - Regimen: Daily Repeat
# Assay type: toxicity, organism-based, Sprague-Dawley
# Set-up: regimen Daily Repeat, gender Male, age 6-8 weeks
# Details: in vivo, po, 10 mg/kg, route oral GAVAGE, dose level Low, vehicle .5 % CMC; for ABSOLUTE BASOPHIL / ABSOLUTE EOSINOPHIL / ABSOLUTE LYMPHOCYTE / ABSOLUTE MONOCYTE / ABSOLUTE SEGMENTED NEUTROPHIL / BASOPHIL / EOSINOPHIL / ERYTHROCYTE COUNT / HEMATOCRIT / HEMOGLOBIN / LEUKOCYTE COUNT / LYMPHOCYTE / MEAN CORPUSCULAR HEMOGLOBIN / MEAN CORPUSCULAR HEMOGLOBIN CONCENTRATION / MEAN CORPUSCULAR VOLUME / MONOCYTE / NEUTROPHIL / NUCLEATED RED BLOOD CELLS / PLATELET COUNT: tissue Blood; for ALANINE AMINOTRANSFERASE / ALBUMIN / ALKALINE PHOSPHATASE / ASPARTATE AMINOTRANSFERASE / BLOOD UREA NITROGEN / CARBON DIOXIDE / CHLORIDE / CHOLESTEROL / CREATINE PHOSPHOKINASE / CREATININE / GLUCOSE / LACTATE DEHYDROGENASE / LIPASE / PHOSPHORUS / POTASSIUM / SODIUM / TOTAL BILIRUBIN / TOTAL PROTEIN / URIC ACID: tissue Plasma
smiles,measurement,setting,value
O=C1CN=C(c2ccccc2)c2cc([N+](=O)[O-])ccc2N1 [NITRAZEPAM],ABSOLUTE BASOPHIL,"72 h, time 3 day",0 CELLS/uL
same,ABSOLUTE EOSINOPHIL,"72 h, time 3 day",19 CELLS/uL
same,ABSOLUTE LYMPHOCYTE,"72 h, time 3 day",6878.67 CELLS/uL
same,ABSOLUTE MONOCYTE,"72 h, time 3 day",19 CELLS/uL
same,ABSOLUTE SEGMENTED NEUTROPHIL,"72 h, time 3 day",750 CELLS/uL
same,BASOPHIL,"72 h, time 3 day",0%
same,EOSINOPHIL,"72 h, time 3 day",0.33%
same,ERYTHROCYTE COUNT,"72 h, time 3 day",5.13 x10E6/uL
same,HEMATOCRIT,"72 h, time 3 day",31.73%
same,HEMOGLOBIN,"72 h, time 3 day",12.93 G/DL
same,LEUKOCYTE COUNT,"72 h, time 3 day",7.67 x10E3/uL
same,LYMPHOCYTE,"72 h, time 3 day",90.33%
same,MEAN CORPUSCULAR HEMOGLOBIN,"72 h, time 3 day",25.23 pg
same,MEAN CORPUSCULAR HEMOGLOBIN CONCENTRATION,"72 h, time 3 day",40.73 G/DL
same,MEAN CORPUSCULAR VOLUME,"72 h, time 3 day",61.9 fL
same,MONOCYTE,"72 h, time 3 day",0.33%
same,NEUTROPHIL,"72 h, time 3 day",9%
same,NUCLEATED RED BLOOD CELLS,"72 h, time 3 day",0 /100WBC
same,PLATELET COUNT,"72 h, time 3 day",847 x10E3/uL
same,ALANINE AMINOTRANSFERASE,"72 h, time 3 day",48.67 u/L
same,ALBUMIN,"72 h, time 3 day",4.23 G/DL
same,ALKALINE PHOSPHATASE,"72 h, time 3 day",424.33 u/L
same,ASPARTATE AMINOTRANSFERASE,"72 h, time 3 day",76.67 u/L
same,BLOOD UREA NITROGEN,"72 h, time 3 day",15 mg/dL
same,CARBON DIOXIDE,"72 h, time 3 day",31 mmol/L
same,CHLORIDE,"72 h, time 3 day",103 MEQ/L
same,CHOLESTEROL,"72 h, time 3 day",76.67 mg/dL
same,CREATINE PHOSPHOKINASE,"72 h, time 3 day",169 u/L
same,CREATININE,"72 h, time 3 day",0.18 mg/dL
same,GLUCOSE,"72 h, time 3 day",141.67 mg/dL
same,LACTATE DEHYDROGENASE,"72 h, time 3 day",124.67 u/L
same,LIPASE,"72 h, time 3 day",10 u/L
same,PHOSPHORUS,"72 h, time 3 day",10.73 mg/dL
same,POTASSIUM,"72 h, time 3 day",5.83 MEQ/L
same,SODIUM,"72 h, time 3 day",149.6 MEQ/L
same,TOTAL BILIRUBIN,"72 h, time 3 day",0.2 mg/dL
same,TOTAL PROTEIN,"72 h, time 3 day",5.43 G/DL
same,URIC ACID,"72 h, time 3 day",0.9 mg/dL
same,ABSOLUTE BASOPHIL,"120 h, time 5 day",0 CELLS/uL
same,ABSOLUTE EOSINOPHIL,"120 h, time 5 day",0 CELLS/uL
same,ABSOLUTE LYMPHOCYTE,"120 h, time 5 day",11358.67 CELLS/uL
same,ABSOLUTE MONOCYTE,"120 h, time 5 day",0 CELLS/uL
same,ABSOLUTE SEGMENTED NEUTROPHIL,"120 h, time 5 day",1008 CELLS/uL
same,BASOPHIL,"120 h, time 5 day",0%
same,EOSINOPHIL,"120 h, time 5 day",0%
same,ERYTHROCYTE COUNT,"120 h, time 5 day",5.81 x10E6/uL
same,HEMATOCRIT,"120 h, time 5 day",35.47%
same,HEMOGLOBIN,"120 h, time 5 day",13.93 G/DL
same,LEUKOCYTE COUNT,"120 h, time 5 day",12.37 x10E3/uL
same,LYMPHOCYTE,"120 h, time 5 day",92%
same,MEAN CORPUSCULAR HEMOGLOBIN,"120 h, time 5 day",24.07 pg
same,MEAN CORPUSCULAR HEMOGLOBIN CONCENTRATION,"120 h, time 5 day",39.33 G/DL
same,MEAN CORPUSCULAR VOLUME,"120 h, time 5 day",61.13 fL
same,MONOCYTE,"120 h, time 5 day",0%
same,NEUTROPHIL,"120 h, time 5 day",8%
same,NUCLEATED RED BLOOD CELLS,"120 h, time 5 day",0 /100WBC
same,PLATELET COUNT,"120 h, time 5 day",1206.67 x10E3/uL
same,ALANINE AMINOTRANSFERASE,"120 h, time 5 day",43.67 u/L
same,ALBUMIN,"120 h, time 5 day",4.43 G/DL
same,ALKALINE PHOSPHATASE,"120 h, time 5 day",331.67 u/L
same,ASPARTATE AMINOTRANSFERASE,"120 h, time 5 day",77.33 u/L
same,BLOOD UREA NITROGEN,"120 h, time 5 day",18 mg/dL
same,CARBON DIOXIDE,"120 h, time 5 day",26.67 mmol/L
same,CHLORIDE,"120 h, time 5 day",102 MEQ/L
same,CHOLESTEROL,"120 h, time 5 day",67.67 mg/dL
same,CREATINE PHOSPHOKINASE,"120 h, time 5 day",186.67 u/L
same,CREATININE,"120 h, time 5 day",0.2 mg/dL
same,GLUCOSE,"120 h, time 5 day",147.33 mg/dL
same,LACTATE DEHYDROGENASE,"120 h, time 5 day",109.33 u/L
same,LIPASE,"120 h, time 5 day",9.33 u/L
same,PHOSPHORUS,"120 h, time 5 day",13.13 mg/dL
same,POTASSIUM,"120 h, time 5 day",6.92 MEQ/L
same,SODIUM,"120 h, time 5 day",147.33 MEQ/L
same,TOTAL BILIRUBIN,"120 h, time 5 day",0.23 mg/dL
same,TOTAL PROTEIN,"120 h, time 5 day",6.4 G/DL
same,URIC ACID,"120 h, time 5 day",2.13 mg/dL
